Drawing on patent US8501794B2, “Compounds as cannabinoid receptor ligands” (priority 2007, dated 2013), this text covers Ki for 25 molecules.

The target of test [1] is T1, human CB2 receptors (Homo sapiens, UniProt P34972).
T1 construct: expressed in transfected cells; host or cells: HEK293
Description: human CB2 radioligand binding assay ([3H]CP-55,940 competition).

Test [2] addresses T2, rat CB2 (Rattus norvegicus, UniProt Q9QZN9).
T2 sequence (Q9QZN9 1-360): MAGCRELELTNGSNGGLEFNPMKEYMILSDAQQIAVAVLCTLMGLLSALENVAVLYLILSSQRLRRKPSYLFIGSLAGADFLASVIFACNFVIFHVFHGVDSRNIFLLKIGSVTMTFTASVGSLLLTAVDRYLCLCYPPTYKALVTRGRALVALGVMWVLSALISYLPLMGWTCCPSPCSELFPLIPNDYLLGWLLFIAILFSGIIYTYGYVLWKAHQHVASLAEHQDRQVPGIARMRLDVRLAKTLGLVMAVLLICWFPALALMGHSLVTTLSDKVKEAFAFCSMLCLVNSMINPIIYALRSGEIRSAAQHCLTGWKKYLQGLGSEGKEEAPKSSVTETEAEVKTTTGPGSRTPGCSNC
Briefly: rat CB2 radioligand binding assay ([3H]CP-55,940 competition). Further details: expressed in transfected cells; host or cells: HEK293.

Where [3] appears, read: HEK293 membranes, 0.5 nM [3H]CP-55,940, read-out: human CB2 (Ki).
The mark [4] stands for this setting: HEK293 membranes, 0.5 nM [3H]CP-55,940, read-out: rat CB2 (Ki).

Read-outs that look alike come from different tables or passages of the source.

What is called Ki is the dissociation constant of the complex between target and ligand, obtained from inhibition or displacement.

T1 sequence (P34972 whole entry): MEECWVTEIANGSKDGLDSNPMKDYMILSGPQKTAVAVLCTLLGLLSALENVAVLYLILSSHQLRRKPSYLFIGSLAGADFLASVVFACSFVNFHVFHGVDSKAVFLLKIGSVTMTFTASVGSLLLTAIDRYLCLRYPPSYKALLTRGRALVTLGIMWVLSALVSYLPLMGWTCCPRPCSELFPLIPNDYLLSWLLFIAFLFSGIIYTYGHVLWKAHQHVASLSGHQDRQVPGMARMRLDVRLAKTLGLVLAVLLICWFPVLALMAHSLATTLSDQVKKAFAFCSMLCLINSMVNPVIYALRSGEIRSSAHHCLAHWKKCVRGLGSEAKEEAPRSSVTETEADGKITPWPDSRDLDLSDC

Regarding `COc1ccc(Cl)cc1C(=O)/N=c1\sn(C(C)(C)C)cc1COCCF` [Example 90, N-[(5Z)-2-tert-butyl-4-[(2-fluoroethoxy)methyl]isothiazol-5(2H)-ylidene]-5-chloro-2-methoxybenzamide], the Ki was determined as 280 nM in test [1] (setting [3]) and 27 nM in test [2].

`CCCC1CCc2c(/c(=N/C(=O)c3cc(Cl)ccc3OC)sn2C(C)(C)C)C1` (centres unmarked) [Example 9, N-[(3Z)-1-tert-butyl-5-propyl-4,5,6,7-tetrahydro-2,1-benzisothiazol-3(1H)-ylidene]-5-chloro-2-methoxybenzamide]: the Ki in test [1] turned out to be 0.9 nM; in test [2], 0.42 nM.

On to `CCCCc1cn(C(C)(C)C)s/c1=N\C(=O)[C@@H]1CC[C@](C)(C(=O)NCCC)C1(C)C` [Example 211, (1S,3R)—N^3-[(5Z)-4-butyl-2-tert-butylisothiazol-5(2H)-ylidene]-1,2,2-trimethyl-N^1-propylcyclopentane-1,3-dicarboxamide], for which the Ki in test [1] (setting [3]) is 270 nM; in test [2] (setting [4]), 111 nM.

Turning to `CCCCc1cn(C(C)(C)C)s/c1=N\C(=O)[C@]1(C)CC[C@H](NC(=O)N(C)c2ccccc2)C1(C)C` [Example 264, (1R,3S)—N-[(5Z)-4-butyl-2-tert-butylisothiazol-5(2H)-ylidene]-1,2,2-trimethyl-3-({[methyl(phenyl)amino]carbonyl}amino)cyclopentanecarboxamide], the Ki in test [1] worked out at 11 nM; in test [2], 33 nM.

Regarding `CCCCc1cn(C(C)(C)C)s/c1=N\C(=O)N[C@H](C(=O)NC)C(C)(C)C` [Example 190, N^2-({[(5Z)-4-butyl-2-tert-butylisothiazol-5(2H)-ylidene]amino}carbonyl)-N^1,3-dimethyl-L-valinamide], the Ki in test [1] and in test [2] was 2.4 nM each time.

Turning to `CCCCc1cn(C(C)(C)C)s/c1=N\C(=O)[C@]1(C)CC[C@H](NC(=O)OC)C1(C)C` [Example 215, Methyl (1S,3R)-3-({[(5Z)-4-butyl-2-tert-butylisothiazol-5(2H)-ylidene]amino}carbonyl)-2,2,3-trimethylcyclopentylcarbamate], the results for the Ki in test [1] and in test [2] were 69 nM and 91 nM, respectively.

For the molecule `COc1ccc(Cl)cc1C(=O)/N=c1\sn(C(C)(C)C)cc1Cc1ccccc1` [Example 35, N-[(5Z)-4-benzyl-2-tert-butylisothiazol-5(2H)-ylidene]-5-chloro-2-methoxybenzamide], the Ki in test [1] was found to be 9.1 nM; in test [2], 1.1 nM.

In the case of `CCCCc1cn(C(C)(C)C)s/c1=N\C(=O)[C@]1(C)CC[C@H](NC(C)=O)C1(C)C` [Example 256, (1R,3S)-3-(acetylamino)-N-[(5Z)-4-butyl-2-tert-butylisothiazol-5(2H)-ylidene]-1,2,2-trimethylcyclopentanecarboxamide], the Ki came out at 19 nM in test [1] and 28 nM in test [2].

Take `CC(C)Cc1cn(C(C)(C)C)s/c1=N\C(=O)c1cc(C(F)(F)F)ccc1OCc1ccccn1` [Example 200, N-[(5Z)-2-tert-butyl-4-isobutylisothiazol-5(2H)-ylidene]-2-(pyridin-2-ylmethoxy)-5-(trifluoromethyl)benzamide]: the Ki in test [1] (setting [3]) stood at 470 nM; in test [2] (setting [4]) it was 391 nM.

Take `C#CCNC(=O)[C@@H]1CC[C@](C)(C(=O)/N=c2\sn(C(C)(C)C)cc2CCCC)C1(C)C` [Example 239, (1S,3R)—N^1-[(5Z)-4-butyl-2-tert-butylisothiazol-5(2H)-ylidene]-1,2,2-trimethyl-N^3-prop-2-ynylcyclopentane-1,3-dicarboxamide]: the Ki in test [1] was 72 nM; in test [2], 70 nM.

With `CCCCc1cn(C(C)(C)C)s/c1=N\C(=O)[C@]1(C)CC[C@H](NC(=O)N2CC(O)C2)C1(C)C` [Example 260, N-[(1S,3R)-3-({[(5Z)-4-butyl-2-tert-butylisothiazol-5(2H)-ylidene]amino}carbonyl)-2,2,3-trimethylcyclopentyl]-3-hydroxyazetidine-1-carboxamide], the Ki in test [1] (setting [3]) was determined as 190 nM; in test [2] (setting [4]) it was 361 nM.

For the molecule `CCCCc1c(C)n(C)s/c1=N\C(=O)C12CC3CC(CC1C3)C2` [Example 4, N-[(5Z)-4-butyl-2,3-dimethylisothiazol-5(2H)-ylidene]hexahydro-2,5-methanopentalene-3a(1H)-carboxamide], the Ki in test [1] is 3.8 nM; in test [2] it was 3.2 nM.

On to `CCCCc1cn(C(C)(C)C)s/c1=N\C(=O)[C@]1(C)CC[C@H](C(=O)N2CCC2)C1(C)C` [Example 178, (1R,3S)-3-(azetidin-1-ylcarbonyl)-N-[(5Z)-4-butyl-2-tert-butylisothiazol-5(2H)-ylidene]-1,2,2-trimethylcyclopentanecarboxamide], for which the Ki in test [1] was determined as 170 nM; in test [2] it was 46 nM.

For the molecule `CCCCc1cn(C(C)(C)C)s/c1=N\C(=O)[C@H]1CC[C@@](C)(C(=O)O)C1(C)C` [Example 181, (1R,3S)-3-({[(5Z)-4-butyl-2-tert-butylisothiazol-5(2H)-ylidene]amino}carbonyl)-1,2,2-trimethylcyclopentanecarboxylic acid], the Ki is 160 nM in test [1] and 15 nM in test [2].

In the case of `C#CCNC(=O)[C@H]1CC[C@@](C)(C(=O)/N=c2\sn(C(C)(C)C)cc2CCCC)C1(C)C` [Example 237, (1R,3S)—N^1-[(5Z)-4-butyl-2-tert-butylisothiazol-5(2H)-ylidene]-1,2,2-trimethyl-N^3-prop-2-ynylcyclopentane-1,3-dicarboxamide], the Ki in test [1] is 23 nM; in test [2], 18 nM.

With `CCCCc1cn(C(C)(C)C)s/c1=N\C(=O)[C@]1(C)CC[C@H](C(=O)NCCCO)C1(C)C` [Example 213, (1R,3S)—N^1-[(5Z)-4-butyl-2-tert-butylisothiazol-5(2H)-ylidene]-N^3-(3-hydroxypropyl)-1,2,2-trimethylcyclopentane-1,3-dicarboxamide], the Ki in test [1] (setting [3]) was 140 nM; in test [2] it was 45 nM.

With `CCCCc1cn(C(C)(C)C)s/c1=N\C(=O)[C@H]1CC[C@@](C)(C(=O)N(C)C)C1(C)C` [Example 183, (1R,3S)—N^3-[(5Z)-4-butyl-2-tert-butylisothiazol-5(2H)-ylidene]-N^1,N^1,1,2,2-pentamethylcyclopentane-1,3-dicarboxamide], the Ki in test [1] (setting [3]) turned out to be 210 nM; in test [2], 40 nM.

As for `CCCCc1cn(C(C)(C)C)s/c1=N\C(=O)C1(c2ccccc2)CCCC1` [Example 98, N-[(5Z)-4-butyl-2-tert-butylisothiazol-5(2H)-ylidene]-1-phenylcyclopentanecarboxamide], the inhibition constant (Ki) in test [1] came to 10 nM; in test [2], 4.8 nM.

Regarding `CCCCc1cn(C(C)(C)C)s/c1=N\C(=O)[C@@H]1CC[C@](C)(C2=NCCO2)C1(C)C` [Example 224, (1R,3S)—N-[(5Z)-4-butyl-2-tert-butylisothiazol-5(2H)-ylidene]-3-(4,5-dihydro-1,3-oxazol-2-yl)-2,2,3-trimethylcyclopentanecarboxamide], the Ki in test [1] worked out at 38 nM; in test [2], 20 nM.

For the molecule `CCCCc1cn(C(C)(C)C)s/c1=N\C(=O)[C@]1(C)CC[C@H](C(=O)N2CC(F)(F)C2)C1(C)C` [Example 185, (1R,3S)—N-[(5Z)-4-butyl-2-tert-butylisothiazol-5(2H)-ylidene]-3-[(3,3-difluoroazetidin-1-yl)carbonyl]-1,2,2-trimethylcyclopentanecarboxamide], the inhibition constant Ki came to 113 nM in test [1] (setting [3]) and 49 nM in test [2].

For `C#Cc1ccc(OC)c(C(=O)/N=c2\sn(C(C)(C)C)cc2CCCC)c1` [Example 62, N-[(5Z)-4-butyl-2-tert-butylisothiazol-5(2H)-ylidene]-5-ethynyl-2-methoxybenzamide], the Ki came to 27 nM in test [1] and 3.1 nM in test [2].

Regarding `COc1ccc(Cl)cc1C(=O)/N=c1\sn(C(C)(C)C)cc1C(O)c1ccccc1` (centres unmarked) [Example 31, N-[(5Z)-2-tert-butyl-4-[hydroxy(phenyl)methyl]isothiazol-5(2H)-ylidene]-5-chloro-2-methoxybenzamide], the Ki is 63 nM in test [1] and 5.8 nM in test [2].

As to `CCCCc1cn(C(C)(C)C)s/c1=N\C(=O)[C@]1(C)CC[C@H](C(=O)N(C)C)C1(C)C` [Example 179, (1R,3S)—N^1-[(5Z)-4-butyl-2-tert-butylisothiazol-5(2H)-ylidene]-N^3,N^3,1,2,2-pentamethylcyclopentane-1,3-dicarboxamide], the Ki was found to be 160 nM in test [1] and 67 nM in test [2].

Take `CCCCc1cn(C(C)(C)C)s/c1=N\C(=O)[C@]1(C)CC[C@H](NC(=O)NC)C1(C)C` [Example 252, (1R,3S)—N-[(5Z)-4-butyl-2-tert-butylisothiazol-5(2H)-ylidene]-1,2,2-trimethyl-3-{[(methylamino)carbonyl]amino}cyclopentanecarboxamide]: the Ki in test [1] was 6.2 nM; in test [2], 18.8 nM.

As to `CCCCc1cn(C(C)(C)C)s/c1=N\C(=O)[C@@]1(C)CC[C@@H](NC(=O)NC)C1(C)C` [Example 254, (1S,3R)—N-[(5Z)-4-butyl-2-tert-butylisothiazol-5(2H)-ylidene]-1,2,2-trimethyl-3-{[(methylamino)carbonyl]amino}cyclopentanecarboxamide], the results for the Ki in test [1] and in test [2] (setting [4]) were 84 nM and 107 nM, respectively.
